Measured values as given in PubChem BioAssay (NCI).
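Protocol summary: plate cells (96-well), add compound at 5 concentrations, incubate 48 h, interpolate endpoints linearly. GI50 marks 50% less growth. TGI: total growth inhibition.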

How the values were obtained:
Test in all cases: NCI tumour cell line growth inhibition, 48 h
OVCAR-5 ovarian = system: OVCAR-5 ovarian
UACC-62 melanoma = system: UACC-62 melanoma
HS 578T breast = system: HS 578T breast
SNB-75 CNS = system: SNB-75 CNS
COLO 205 colon = system: COLO 205 colon
U251 CNS = system: U251 CNS
NCI/ADR-RES ovarian = system: NCI/ADR-RES ovarian
NCI-H226 lung = system: NCI-H226 lung
LOX IMVI melanoma = system: LOX IMVI melanoma
HCC-2998 colon = system: HCC-2998 colon
786-0 renal = system: 786-0 renal
HCT-116 colon = system: HCT-116 colon
MALME-3M melanoma = system: MALME-3M melanoma
OVCAR-8 ovarian = system: OVCAR-8 ovarian
UACC-257 melanoma = system: UACC-257 melanoma
HCT-15 colon = system: HCT-15 colon
HOP-92 NSCLC = system: HOP-92 NSCLC
HOP-62 NSCLC = system: HOP-62 NSCLC
NCI-H23 lung = system: NCI-H23 lung
SK-MEL-28 melanoma = system: SK-MEL-28 melanoma
HL-60(TB) leukemia = system: HL-60(TB) leukemia
MDA-MB-231 breast = system: MDA-MB-231 breast
CAKI-1 renal = system: CAKI-1 renal
MCF7 breast = system: MCF7 breast
UO-31 renal = system: UO-31 renal
EKVX NSCLC = system: EKVX NSCLC
ACHN renal = system: ACHN renal
SF-295 CNS = system: SF-295 CNS
RPMI-8226 leukemia = system: RPMI-8226 leukemia
PC-3 prostate = system: PC-3 prostate
A549 NSCLC = system: A549 NSCLC
BT-549 breast = system: BT-549 breast
SK-MEL-2 melanoma = system: SK-MEL-2 melanoma
TK-10 renal = system: TK-10 renal
SN12C renal = system: SN12C renal
CCRF-CEM leukemia = system: CCRF-CEM leukemia
A498 renal = system: A498 renal
SF-539 CNS = system: SF-539 CNS
MDA-MB-435 = system: MDA-MB-435
HT29 colon = system: HT29 colon
SK-OV-3 ovarian = system: SK-OV-3 ovarian
DU-145 prostate = system: DU-145 prostate
SNB-19 CNS = system: SNB-19 CNS
T-47D breast = system: T-47D breast
SF-268 CNS = system: SF-268 CNS
SK-MEL-5 melanoma = system: SK-MEL-5 melanoma
K-562 leukemia = system: K-562 leukemia
NCI-H522 lung = system: NCI-H522 lung
NCI-H460 lung = system: NCI-H460 lung
SW-620 colon = system: SW-620 colon
MOLT-4 leukemia = system: MOLT-4 leukemia
IGROV1 ovarian = system: IGROV1 ovarian
KM12 colon = system: KM12 colon
M14 melanoma = system: M14 melanoma
RXF 393 renal = system: RXF 393 renal
OVCAR-4 ovarian = system: OVCAR-4 ovarian

For `CCCCCc1ccc(S(=O)(=O)N(C(C)=O)c2cccc(-c3csc(N(CCN4CCN(C)CC4)C(C)=O)n3)c2)cc1`, which GI50 (OVCAR-5 ovarian) is on record?
Its GI50 is 3.5 µM.

And the TGI (OVCAR-5 ovarian)?
Its TGI is 6.81 µM.

What about the GI50 (UACC-62 melanoma) of the same molecule?
Its GI50 is 4.21 µM.

What about the TGI (UACC-62 melanoma) of the same molecule?
Its TGI is 7.79 µM.

And the GI50 (HS 578T breast)?
Its GI50 is 3.3 µM.

What about the TGI (HS 578T breast) of the same molecule?
Its TGI is 10.8 µM.

What about the GI50 (SNB-75 CNS) of the same molecule?
Its GI50 is 1.06 µM.

What about the TGI (SNB-75 CNS) of the same molecule?
Its TGI is 5.21 µM.

And the GI50 (COLO 205 colon)?
The GI50 was 0.815 µM.

And the TGI (COLO 205 colon)?
The TGI was 2.96 µM.

What about the GI50 (U251 CNS) of the same molecule?
The GI50 was 2.75 µM.

What about the TGI (U251 CNS) of the same molecule?
Its TGI is 5.81 µM.

What about the GI50 (NCI/ADR-RES ovarian) of the same molecule?
Its GI50 is 3.5 µM.

And the TGI (NCI/ADR-RES ovarian)?
Its TGI is 7.55 µM.

And the GI50 (NCI-H226 lung)?
The GI50 was 4.09 µM.

And the TGI (NCI-H226 lung)?
The TGI was 8.82 µM.

And the GI50 (LOX IMVI melanoma)?
Its GI50 is 0.085 µM.

What about the TGI (LOX IMVI melanoma) of the same molecule?
Its TGI is 1.26 µM.

And the GI50 (HCC-2998 colon)?
The GI50 was 1.15 µM.

What about the TGI (HCC-2998 colon) of the same molecule?
Its TGI is 4.07 µM.

And the GI50 (786-0 renal)?
Its GI50 is 0.642 µM.

What about the TGI (786-0 renal) of the same molecule?
The TGI was 2 µM.

And the GI50 (HCT-116 colon)?
Its GI50 is 0.929 µM.

What about the TGI (HCT-116 colon) of the same molecule?
Its TGI is 3.41 µM.

And the GI50 (MALME-3M melanoma)?
Its GI50 is 1.58 µM.

And the TGI (MALME-3M melanoma)?
Its TGI is 5.04 µM.

And the GI50 (OVCAR-8 ovarian)?
The GI50 was 3.51 µM.

What about the TGI (OVCAR-8 ovarian) of the same molecule?
Its TGI is 6.95 µM.

What about the GI50 (UACC-257 melanoma) of the same molecule?
Its GI50 is 4.37 µM.

What about the TGI (UACC-257 melanoma) of the same molecule?
Its TGI is 8.1 µM.

What about the GI50 (HCT-15 colon) of the same molecule?
Its GI50 is 0.837 µM.

And the TGI (HCT-15 colon)?
The TGI was 2.98 µM.

What about the GI50 (HOP-92 NSCLC) of the same molecule?
The GI50 was 1.06 µM.

And the TGI (HOP-92 NSCLC)?
Its TGI is 4.62 µM.

What about the GI50 (HOP-62 NSCLC) of the same molecule?
Its GI50 is 3.58 µM.

What about the TGI (HOP-62 NSCLC) of the same molecule?
Its TGI is 7.3 µM.

What about the GI50 (NCI-H23 lung) of the same molecule?
Its GI50 is 3.8 µM.

And the TGI (NCI-H23 lung)?
The TGI was 7.39 µM.

What about the GI50 (SK-MEL-28 melanoma) of the same molecule?
Its GI50 is 3.07 µM.

And the TGI (SK-MEL-28 melanoma)?
Its TGI is 6.22 µM.

And the GI50 (HL-60(TB) leukemia)?
The GI50 was 0.991 µM.

And the TGI (HL-60(TB) leukemia)?
Its TGI is 4.51 µM.

And the GI50 (MDA-MB-231 breast)?
The GI50 was 2.64 µM.

What about the TGI (MDA-MB-231 breast) of the same molecule?
The TGI was 5.96 µM.

What about the GI50 (CAKI-1 renal) of the same molecule?
Its GI50 is 2.93 µM.

What about the TGI (CAKI-1 renal) of the same molecule?
The TGI was 6.2 µM.

And the GI50 (MCF7 breast)?
The GI50 was 0.83 µM.

What about the TGI (MCF7 breast) of the same molecule?
Its TGI is 3.3 µM.

And the GI50 (UO-31 renal)?
The GI50 was 2.86 µM.

And the TGI (UO-31 renal)?
Its TGI is 5.96 µM.

What about the GI50 (EKVX NSCLC) of the same molecule?
Its GI50 is 3.79 µM.

And the TGI (EKVX NSCLC)?
The TGI was 7.27 µM.

What about the GI50 (ACHN renal) of the same molecule?
Its GI50 is 3.52 µM.

What about the TGI (ACHN renal) of the same molecule?
The TGI was 6.77 µM.

And the GI50 (SF-295 CNS)?
The GI50 was 3.63 µM.

What about the TGI (SF-295 CNS) of the same molecule?
Its TGI is 7.15 µM.

What about the GI50 (RPMI-8226 leukemia) of the same molecule?
Its GI50 is 2.5 µM.

And the TGI (RPMI-8226 leukemia)?
The TGI was 7.53 µM.

What about the GI50 (PC-3 prostate) of the same molecule?
Its GI50 is 3.32 µM.

What about the TGI (PC-3 prostate) of the same molecule?
The TGI was 7.06 µM.

And the GI50 (A549 NSCLC)?
The GI50 was 3.03 µM.

And the TGI (A549 NSCLC)?
Its TGI is 6.27 µM.

And the GI50 (BT-549 breast)?
The GI50 was 2.94 µM.

And the TGI (BT-549 breast)?
The TGI was 6.04 µM.

What about the GI50 (SK-MEL-2 melanoma) of the same molecule?
The GI50 was 3.99 µM.

And the TGI (SK-MEL-2 melanoma)?
The TGI was 7.44 µM.

What about the GI50 (TK-10 renal) of the same molecule?
The GI50 was 4.08 µM.

And the TGI (TK-10 renal)?
The TGI was 7.57 µM.

And the GI50 (SN12C renal)?
Its GI50 is 3.4 µM.

What about the TGI (SN12C renal) of the same molecule?
The TGI was 6.75 µM.

And the GI50 (CCRF-CEM leukemia)?
Its GI50 is 1.95 µM.

What about the TGI (CCRF-CEM leukemia) of the same molecule?
Its TGI is 7.49 µM.

What about the GI50 (A498 renal) of the same molecule?
Its GI50 is 1.24 µM.

And the TGI (A498 renal)?
Its TGI is 4.75 µM.

What about the GI50 (SF-539 CNS) of the same molecule?
Its GI50 is 3.64 µM.

What about the TGI (SF-539 CNS) of the same molecule?
Its TGI is 7.01 µM.

What about the GI50 (MDA-MB-435) of the same molecule?
Its GI50 is 0.987 µM.

And the TGI (MDA-MB-435)?
Its TGI is 3.74 µM.

And the GI50 (HT29 colon)?
The GI50 was 0.856 µM.

What about the TGI (HT29 colon) of the same molecule?
The TGI was 2.71 µM.

And the GI50 (SK-OV-3 ovarian)?
Its GI50 is 4.04 µM.

And the TGI (SK-OV-3 ovarian)?
The TGI was 7.64 µM.

What about the GI50 (DU-145 prostate) of the same molecule?
The GI50 was 3.48 µM.

What about the TGI (DU-145 prostate) of the same molecule?
Its TGI is 6.81 µM.

What about the GI50 (SNB-19 CNS) of the same molecule?
The GI50 was 3.63 µM.

And the TGI (SNB-19 CNS)?
The TGI was 7.14 µM.

And the GI50 (T-47D breast)?
The GI50 was 2.79 µM.

What about the TGI (T-47D breast) of the same molecule?
The TGI was 6.73 µM.

What about the GI50 (SF-268 CNS) of the same molecule?
The GI50 was 3.56 µM.

What about the TGI (SF-268 CNS) of the same molecule?
The TGI was 7.6 µM.

What about the GI50 (SK-MEL-5 melanoma) of the same molecule?
Its GI50 is 3.31 µM.

And the TGI (SK-MEL-5 melanoma)?
Its TGI is 6.57 µM.

And the GI50 (K-562 leukemia)?
The GI50 was 0.751 µM.

And the TGI (K-562 leukemia)?
The TGI was 3.01 µM.

And the GI50 (NCI-H522 lung)?
Its GI50 is 3.91 µM.

What about the TGI (NCI-H522 lung) of the same molecule?
The TGI was 7.55 µM.

And the GI50 (NCI-H460 lung)?
The GI50 was 1.4 µM.

And the TGI (NCI-H460 lung)?
Its TGI is 4.61 µM.

What about the GI50 (SW-620 colon) of the same molecule?
Its GI50 is 0.824 µM.

And the TGI (SW-620 colon)?
Its TGI is 3.19 µM.

And the GI50 (MOLT-4 leukemia)?
Its GI50 is 1.22 µM.

And the TGI (MOLT-4 leukemia)?
Its TGI is 5.26 µM.

What about the GI50 (IGROV1 ovarian) of the same molecule?
The GI50 was 2.96 µM.

What about the TGI (IGROV1 ovarian) of the same molecule?
Its TGI is 6.61 µM.

What about the GI50 (KM12 colon) of the same molecule?
The GI50 was 4.04 µM.

What about the TGI (KM12 colon) of the same molecule?
Its TGI is 8.04 µM.

What about the GI50 (M14 melanoma) of the same molecule?
The GI50 was 2.23 µM.

And the TGI (M14 melanoma)?
Its TGI is 5.64 µM.

What about the GI50 (RXF 393 renal) of the same molecule?
The GI50 was 1.19 µM.

What about the TGI (RXF 393 renal) of the same molecule?
The TGI was 4.35 µM.

And the GI50 (OVCAR-4 ovarian)?
Its GI50 is 3.49 µM.

And the TGI (OVCAR-4 ovarian)?
Its TGI is 7.42 µM.
